{"source": "patent US10808008B2", "about": "“Aromatic-cationic peptides and uses of same” (Cornell University, priority 2012, dated 2020)", "key": {"cytochrome c [1]": {"biological_target": "T1, cytochrome c (Equus caballus, UniProt P00004)", "T1 sequence (P00004 2-105 limits assumed)": "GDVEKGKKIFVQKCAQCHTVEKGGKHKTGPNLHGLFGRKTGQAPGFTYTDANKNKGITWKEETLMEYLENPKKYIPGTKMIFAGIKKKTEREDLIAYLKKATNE", "experiment": "Fluorescence quenching of labelled peptides by cytochrome c", "assay_type": "binding, horse", "set-up": "from tissue; host or cells: horse heart", "conditions": "Example 22; additions of cytochrome c (2 μM)", "protocol": "Maximal fluorescence emission of SS-19 was monitored at 420 nm following excitation at 320 nm using Hitachi F-4500 fluorescence spectrophotometer.\nThe quenching by cytochrome c was not displaced by sequential additions of bovine serum albumin (FIG. 12C, A+arrows) (500 μg/ml). […] Accordingly, aromatic-cationic peptides of the present disclosure are useful for the prevention or treatment of diseases or disorders characterized by dysregulation of cytochrome c.\nFluorescence emission of SS-19 (10 μM) was monitored in real time (Ex/Em=320 nm/420 nm) using Hitachi F-4500 fluorescence spectrophotometer.\nInteraction of SS peptides with horse heart cytochrome c in the absence or presence of free cardiolipin or cardiolipin/POPC (1:1) liposomes (prepared as described in Example 22) was examined by fluorescence quenching of [atn]SS-02 (λex/λem=320/420 nm) and [ald]SS-02 (λex/λem=360/510 nm) upon addition of cytochrome c (using a Hitachi F-4500 fluorescence spectrophotometer). The solvents used to dissolve cardiolipin and POPC had negligible effect on cytochrome c-dependent quenching of these peptides. All experiments were done in low ionic solution (deionized water) or 20 mM Hepes pH 7.4."}, "cytochrome c [2]": {"biological_target": "T1, cytochrome c", "experiment": "Fluorescence quenching of labelled peptides by cytochrome c", "assay_type": "binding, horse", "set-up": "from tissue; host or cells: horse heart", "conditions": "additions of 75 μg/ml BSA"}}, "data": [{"substance": "tetramethylrhodamine methyl ester [TMRM, reference compound]", "values": [{"measurement": "quenching of fluorescence by cytochrome c", "setting": "cytochrome c [1]", "value": "slightly quenched"}, {"measurement": "reversal of cytochrome c quenching by BSA", "setting": "cytochrome c [2]", "value": "completely reversed quenching"}]}]}
